Results published in patent publication US11311503B1, “Sterile aqueous choline salt compositions” (Protara Therapeutics, Inc., priority 2021, dated 2022).
Where two headings read alike, the source gives them in different places.

Key:
[1] = three months post production
[2] = three months post production; remark: listed apart in the source
[3] = Acid 1: 1 N HCl, about 72 hours
[4] = Acid 2: 0.1 N HCl, about 72 hours
[5] = Base 1: 1 N NaOH, about 72 hours
[6] = Base 2: 0.1 N NaOH, about 72 hours
[7] = Heat (dry): 80°, about 72 hours
[8] = Heat (wet): 80°, about 72 hours
[9] = Oxidation: 5% H2O2, about 24 hours
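Wherever % Impurities RRT 1.42/1.44 is given: Stress-treated samples analysed together with a control by the test method, run time lengthened to catch possible late-eluting degradation peaks.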
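Wherever % Total Impurities is given: Stress-treated samples analysed together with a control by the test method, run time lengthened to catch possible late-eluting degradation peaks.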
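Wherever Assay % Relative to control is given: Stress-treated samples analysed together with a control by the test method, run time lengthened to catch possible late-eluting degradation peaks.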
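Wherever Mass Balance % Relative to Control is given: Stress-treated samples analysed together with a control by the test method, run time lengthened to catch possible late-eluting degradation peaks.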

For `C[N+](C)(C)CCO.[Cl-]` [Choline chloride], the “% Impurities RRT 1.42/1.44” value [3] was 0.14%, the “% Total Impurities” value [3] was 0.14% and the “Assay % Relative to control” value [3] was 100.4%. For the same molecule, the “Mass Balance % Relative to Control” value [3] was 100.5%, the “Mass Balance Assay + Impurities” value [3] was 99.24 and the “Assay % LC” value (Acid 1: 1 N HCl, about 72 hours, ambient) was 99.1 % LC. The “Assay % Relative to control” value [4] was 100.2%, the “Mass Balance % Relative to Control” value [4] was 100.2% and the “Mass Balance Assay + Impurities” value [4] was 98.9. For the same molecule, the “Assay % LC” value (Acid 2: 0.1 N HCl, about 72 hours, ambient) was 98.9 % LC, the “% Impurities RRT 1.42/1.44” value [5] was 0.14% and the “% Total Impurities” value [5] was 0.14%. The “Assay % Relative to control” value [5] was 100.6%, the “Mass Balance % Relative to Control” value [5] was 100.7% and the “Mass Balance Assay + Impurities” value [5] was 99.44. For the same molecule, the “Assay % LC” value (Base 1: 1 N NaOH, about 72 hours, ambient) was 99.3 % LC, the “Assay % Relative to control” value [6] was 102.1% and the “Mass Balance % Relative to Control” value [6] was 102.1%. For the same molecule, the “Mass Balance Assay + Impurities” value [6] was 100.8, the “Assay % LC” value (Base 2: 0.1 N NaOH, about 72 hours, ambient) was 100.8 % LC and the “Assay % LC” value (Control: No treatment) was 98.7 % LC. For the same molecule, the “Mass Balance Assay + Impurities” value (Control: No treatment) was 98.7, the “Assay % LC” value (Heat (dry): 80° for about 72 hours) was 99.2 % LC and the “Assay % Relative to control” value [7] was 100.5%. For the same molecule, the “Mass Balance % Relative to Control” value [7] was 100.5%, the “Mass Balance Assay + Impurities” value [7] was 99.2 and the “Assay % Relative to control” value [8] was 100.7%. For the same molecule, the “Mass Balance % Relative to Control” value [8] was 100.7%, the “Mass Balance Assay + Impurities” value [8] was 99.4 and the “Assay % LC” value (Heat (wet): in the presence of water, 80° for about 72 hours) was 99.4 % LC. The “Assay % LC” value (Light (dry): about 7.2 kilolux Visible and 1 W/m^2 UV, about 120 hours) was 99.7 % LC, the “Assay % Relative to control” value (Light (dry): about 120 hours) was 101.0% and the “Mass Balance % Relative to Control” value (Light (dry): about 120 hours) was 101.0%. For the same molecule, the “Mass Balance Assay + Impurities” value (Light (dry): about 120 hours) was 99.7, the “Assay % Relative to control” value (Light (wet): about 120 hours) was 100.2% and the “Mass Balance % Relative to Control” value (Light (wet): about 120 hours) was 100.2%. The “Mass Balance Assay + Impurities” value (Light (wet): about 120 hours) was 98.9, the “Assay % LC” value (Light (wet): in the presence of water, about 7.2 kilolux Visible and 1 W/m^2 UV, about 120 hours) was 98.9 % LC and the “% Total Impurities” value [9] was 0.55%. The “Assay % Relative to control” value [9] was 100.7%, the “Mass Balance % Relative to Control” value [9] was 101.3% and the “Mass Balance Assay + Impurities” value [9] was 99.95. For the same molecule, the “Assay % LC” value (Oxidation: 5% H2O2, about 24 hours, ambient) was 99.4 % LC, the “stability / degradation at all stressed conditions” value (acid, base, oxidation, light, heat, maximum stress conditions) was “no significant degradation” and the “Bacterial Endotoxins” value [1] was <0.1 EU/mg. For the same molecule, the “pH (1 in 10 solution)” value [2] was 5.9.
